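Following 48 hours of exposure in 96-well plates, responses at five concentrations were used to interpolate endpoints linearly. TGI: total growth inhibition.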
Key:
Experiment in all cases: inhibition of tumour cell growth, NCI panel, 48 h
786-0 renal = test system: 786-0 renal
A549 NSCLC = test system: A549 NSCLC
CAKI-1 renal = test system: CAKI-1 renal
CCRF-CEM leukemia = test system: CCRF-CEM leukemia
HOP-62 NSCLC = test system: HOP-62 NSCLC
IGROV1 ovarian = test system: IGROV1 ovarian
MDA-MB-435 = test system: MDA-MB-435
MOLT-4 leukemia = test system: MOLT-4 leukemia
OVCAR-5 ovarian = test system: OVCAR-5 ovarian
OVCAR-8 ovarian = test system: OVCAR-8 ovarian
SK-MEL-28 melanoma = test system: SK-MEL-28 melanoma
T-47D breast = test system: T-47D breast
UACC-257 melanoma = test system: UACC-257 melanoma
UACC-62 melanoma = test system: UACC-62 melanoma

Measured: TGI

CCOC(=O)C(C)c1nc2cc(F)c(N3CCOCC3)cc2[nH]c1=O (stereo not drawn)
> 100 µM: all assays above

N/C(=N\Nc1cccc(Cl)c1)c1cccnc1
> 81.5 µM: UACC-257 melanoma
> 92.6 µM: T-47D breast
> 30.1 µM: MDA-MB-435
> 100 µM: all other assays above

CC(C)/C(Cl)=N/OC(NC(=O)Nc1ccc(Cl)c(Cl)c1)(C(F)(F)F)C(F)(F)F
42.5 µM: HOP-62 NSCLC
22.2 µM: 786-0 renal
12 µM: MOLT-4 leukemia
35.2 µM: IGROV1 ovarian
37.2 µM: UACC-62 melanoma
19.4 µM: T-47D breast
3.61 µM: CAKI-1 renal
38.4 µM: OVCAR-5 ovarian
25.9 µM: UACC-257 melanoma
72.4 µM: A549 NSCLC
34.8 µM: OVCAR-8 ovarian
5.71 µM: CCRF-CEM leukemia
35.3 µM: SK-MEL-28 melanoma
33.8 µM: MDA-MB-435

COC(=O)C1=C(O)C(C(=O)OC)[C@]2(O)[C@H](C(=O)OC)[C@H]1C[C@@H](c1ccc(O)cc1)[C@H]2C(=O)OC (stereo partly drawn)
97.1 µM: OVCAR-5 ovarian
55.4 µM: HOP-62 NSCLC
> 100 µM: all other assays above

COP(=N[Si](C)(C)C)(OC)OC
> 100 µM: all assays above

O=C(/C=C/c1ccsc1)c1cccs1
54.3 µM: T-47D breast
54.6 µM: CCRF-CEM leukemia
46.1 µM: SK-MEL-28 melanoma
> 10 µM: MDA-MB-435 | MOLT-4 leukemia | OVCAR-8 ovarian
88.5 µM: UACC-62 melanoma
> 100 µM: all other assays above

O=C1CSC2(CC(/C=C/c3cccc(Br)c3)=NN2c2cccc(S(=O)(=O)O)c2)N1c1nc2ccccc2s1 (stereo not drawn)
> 100 µM: all assays above

CCCCC1=C(C(=O)N2CCOCC2)C2(OCCO2)C1Cl (stereo not drawn)
86.5 µM: CAKI-1 renal
53.6 µM: SK-MEL-28 melanoma
48.9 µM: A549 NSCLC
67.8 µM: MDA-MB-435
60.9 µM: UACC-257 melanoma
45.5 µM: OVCAR-5 ovarian
> 100 µM: all other assays above

Cc1cc(Cl)ccc1NC(=O)/C(Cc1nc2ccc(C(=O)c3ccccc3)cc2[nH]c1=O)=N/NC(=O)c1ccncc1
> 100 µM: all assays above

N#CCN(Cc1ccccc1)[C@H]1CCC[C@]1(O)/C=C/c1ccc2c(c1)OCO2
92.2 µM: IGROV1 ovarian
58 µM: UACC-257 melanoma
82.6 µM: HOP-62 NSCLC
31.4 µM: 786-0 renal
48.1 µM: MOLT-4 leukemia
34 µM: SK-MEL-28 melanoma
37.9 µM: UACC-62 melanoma
53.2 µM: MDA-MB-435
53.1 µM: CCRF-CEM leukemia
32.5 µM: OVCAR-8 ovarian
46.4 µM: T-47D breast
> 100 µM: all other assays above

Cc1nc(C)c(N2CCN(C(=O)NC(CCC(=O)O)C(=O)O)CC2)c(=O)[nH]1 (stereo not drawn)
> 100 µM: all assays above

COc1ccc(OC)c2sc(N3C(=O)/C(=C/c4ccc(N(C)C)cc4)N=C3c3ccccc3)nc12
24.5 µM: CCRF-CEM leukemia
65.7 µM: MOLT-4 leukemia
> 100 µM: all other assays above

Reference: PubChem BioAssay (NCI)
